Positions of bridges follow the written chain, without caps; N, C: chain ends. Non-standard residues stand in square brackets, D forms with d. Residues, ends and D or L forms follow the SMILES beside them. Trp(1-Me) = Cn1cc(C[C@H](N)C(=O)O)c2ccccc21
Assays:
[1] = tested on: classical complement pathway; assay: In vitro haemolysis assay (inhibition of classical complement pathway); assay type: cell-based, human; settings: Table 3; human serum, sensitized sheep red blood cells; read-out: IC50[nM], in vitro analysis of inhibition of hemolysis
Outline: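 Serially diluted compound (9 points) was preincubated 15 min at room temperature with diluted human serum, titrated per batch to give 70-90% maximal haemolysis, in Tris/casein buffer pH 7.4 with Mg2+/Ca2+. Antibody-sensitized sheep erythrocytes were then added for 30 min at 37° C, and the reaction was stopped with EDTA. Haemolysis was read at A405, with IC50 from 4PL fit.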

[2] = Solubility test at 10 mg/mL (visual inspection and light scattering); assay type: physicochemical; settings: for Solubility, Condition 1 Acetate pH 4: 10 mg/mL compound in 100 mM acetate pH 4; for Solubility, Condition 2 Acetate pH 5: 10 mg/mL compound in 100 mM acetate pH 5; for Solubility, Condition 3 Phosphate pH 6: 10 mg/mL compound in 100 mM phosphate pH 6; for Solubility, Condition 4 Phosphate pH 7: 10 mg/mL compound in 100 mM phosphate pH 7; for Solubility, Condition 5 Phosphate pH 7.5: 10 mg/mL compound in 100 mM phosphate pH 7.5

CC[C@H](C)[C@@H]1NC(=O)[C@@H](NC(=O)[C@@H](NC(=O)[C@H](CCC(=O)O)NC(=O)[C@H](CO)NC(=O)[C@H](CCC(=O)O)NC(C)=O)[C@@H](C)CC)CSSC[C@@H](C(=O)N[C@H](C(N)=O)[C@@H](C)O)NC(=O)[C@H](CCCNC(=N)N)NC(=O)[C@H](Cc2c[nH]cn2)NC(=O)[C@H](CCC(=O)O)NC(=O)CNC(=O)[C@H](Cc2c[nH]c3ccccc23)NC(=O)[C@H](CC(=O)O)NC(=O)[C@H](CCC(N)=O)NC(=O)[C@H](Cc2c[nH]c3ccccc23)NC1=O [Compound 31] (Ac-ESEICIWQDWGEHRCT-NH2; disulfide 5-15)
IC50 [1]: < 100 nM | Solubility, Condition 1 Acetate pH 4 [2]: + (denotes solubility at the given condition, as determined by UV absorbance being less than 0.1 AU at 340 nm and the sample being clear when manually inspected.) | Solubility, Condition 2 Acetate pH 5 [2]: + (denotes solubility at the given condition, as determined by UV absorbance being less than 0.1 AU at 340 nm and the sample being clear when manually inspected.) | Solubility, Condition 3 Phosphate pH 6 [2]: + (denotes solubility at the given condition, as determined by UV absorbance being less than 0.1 AU at 340 nm and the sample being clear when manually inspected.) | Solubility, Condition 4 Phosphate pH 7 [2]: + (denotes solubility at the given condition, as determined by UV absorbance being less than 0.1 AU at 340 nm and the sample being clear when manually inspected.) | Solubility, Condition 5 Phosphate pH 7.5 [2]: + (denotes solubility at the given condition, as determined by UV absorbance being less than 0.1 AU at 340 nm and the sample being clear when manually inspected.)

CC[C@H](C)[C@@H]1NC(=O)[C@@H](NC(=O)[C@H](Cc2ccccc2)NC(=O)[C@H](CCC(=O)O)NC(=O)[C@H](CO)NC(C)=O)CSSC[C@@H](C(=O)N[C@H](C(=O)NCC(=O)N[C@@H](C)C(=O)N[C@@H](CCC(=O)O)C(=O)N[C@@H](CO)C(N)=O)[C@@H](C)O)NC(=O)[C@H](CCCNC(=N)N)NC(=O)[C@H](Cc2c[nH]cn2)NC(=O)[C@H](CCC(=O)O)NC(=O)CNC(=O)[C@H](Cc2c[nH]c3ccccc23)NC(=O)[C@H](CC(=O)O)NC(=O)[C@H](CCC(N)=O)NC(=O)[C@H](Cc2cn(C)c3ccccc23)NC1=O [Compound 67] (Ac-SEFCI[Trp(1-Me)]QDWGEHRCTGAES-NH2; disulfide 4-14)
IC50 [1]: < 100 nM | Solubility, Condition 1 Acetate pH 4 [2]: − (denotes lack of solubility at the given condition, as UV absorbance at 340 nm exceeds 0.1 AU and/or it is visibly turbid or contains particles.) | Solubility, Condition 2 Acetate pH 5 [2]: − (denotes lack of solubility at the given condition, as UV absorbance at 340 nm exceeds 0.1 AU and/or it is visibly turbid or contains particles.) | Solubility, Condition 3 Phosphate pH 6 [2]: + (denotes solubility at the given condition, as determined by UV absorbance being less than 0.1 AU at 340 nm and the sample being clear when manually inspected.) | Solubility, Condition 4 Phosphate pH 7 [2]: + (denotes solubility at the given condition, as determined by UV absorbance being less than 0.1 AU at 340 nm and the sample being clear when manually inspected.) | Solubility, Condition 5 Phosphate pH 7.5 [2]: + (denotes solubility at the given condition, as determined by UV absorbance being less than 0.1 AU at 340 nm and the sample being clear when manually inspected.)

From patent publication US20220306695A1, “COMPSTATIN ANALOGUES AND THEIR MEDICAL USES” (priority 2019, published 2022)
